From patent US6794169B2, “UDP-N-acetylglucosamine: galactose-β1,3-N-acetylgalactosamine-α-R / (GlcNAc to GalNAc) β1,6-N-acetylglucosaminyltransferase, C2GnT3” (Glycozym ApS, priority 1999, dated 2004)

Key:
C2GnT3 = target: T1, C2GnT3 (Homo sapiens, UniProt Q9P109); assay: GlcNAc-transferase activity of recombinant soluble C2GnT3 with acceptor/donor substrates; assay type: biochemical; details: for Substrate specificity, C2GnT3 activity: partially purified media of infected High Five cells, background subtracted; for C2GnT3 activity with acceptor substrate (in words): as acceptor substrate; for C2GnT3 activity with donor substrate (in words): as donor substrate, data not shown
T1 construct: An expression vector construct designed to encode amino acid residues 39-453 of C2GnT3; gp67 secretion signal of vector pAcGP67A (N); made in house; host or cells: Sf9 insect cells (baculovirus; culture supernatant); High Five cells for kinetic properties (partially purified)
T1 sequence (Q9P109 39-453): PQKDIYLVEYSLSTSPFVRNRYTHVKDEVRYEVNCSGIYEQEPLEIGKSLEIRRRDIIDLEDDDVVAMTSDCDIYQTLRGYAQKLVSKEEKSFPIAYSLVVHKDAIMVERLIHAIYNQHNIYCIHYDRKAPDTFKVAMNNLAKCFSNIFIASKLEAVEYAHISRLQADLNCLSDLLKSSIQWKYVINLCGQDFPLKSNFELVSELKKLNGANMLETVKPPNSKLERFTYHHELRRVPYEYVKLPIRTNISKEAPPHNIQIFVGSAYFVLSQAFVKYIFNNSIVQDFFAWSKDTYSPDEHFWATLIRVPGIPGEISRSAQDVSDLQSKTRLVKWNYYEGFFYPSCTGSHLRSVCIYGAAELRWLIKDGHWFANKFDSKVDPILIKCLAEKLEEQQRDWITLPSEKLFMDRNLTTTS
Description: with BamH1 and EcoRI restriction sites, respectively (FIG. 2). The PCR product was cloned between the BamHI and EcoRI sites of pAcGP67A (PharMingen), and the insert was fully sequenced. pAcGP67-C2GnT3-sol was co-transfected with Baculo-Gold™ DNA (PharMingen) as described previously (23). Recombinant Baculovirus was obtained after two successive amplifications in Sf9 cells grown in serum-containing medium, and titers of virus were estimated by titration in 24-well plates with monitoring of enzyme activities.
(§1) Controls included the pAcGP67-GalNAc-T3-sol (24). The kinetic properties were determined with partially purified enzymes expressed in High Five™ cells. Partial purification was performed by consecutive chromatography on Amberlite IRA-95, DEAE-Sephacryl and SP-Sepharose essentially as described (25; 25).
(§2) Standard assays were performed using culture supernatant from infected cells in 50 μl reaction mixtures containing 100 mM MES (pH 6.5), 0.1% Nonidet P-40, 150 μM UDP-[^14C]-GlcNAc (2,000 cpm/nmol) (Amersham Pharmacia Biotech), and the indicated concentrations of acceptor substrates (Sigma and Toronto Research Laboratories Ltd., see Table I for structures). Reaction products were quantified by chromatography on Dowex AG1-X8.

C2GnT1 = target: T2, C2GnT1 (Homo sapiens, UniProt Q02742); assay: GlcNAc-transferase activity of C2GnT1 with acceptor substrates; assay type: biochemical
T2 sequence (Q02742 1-428): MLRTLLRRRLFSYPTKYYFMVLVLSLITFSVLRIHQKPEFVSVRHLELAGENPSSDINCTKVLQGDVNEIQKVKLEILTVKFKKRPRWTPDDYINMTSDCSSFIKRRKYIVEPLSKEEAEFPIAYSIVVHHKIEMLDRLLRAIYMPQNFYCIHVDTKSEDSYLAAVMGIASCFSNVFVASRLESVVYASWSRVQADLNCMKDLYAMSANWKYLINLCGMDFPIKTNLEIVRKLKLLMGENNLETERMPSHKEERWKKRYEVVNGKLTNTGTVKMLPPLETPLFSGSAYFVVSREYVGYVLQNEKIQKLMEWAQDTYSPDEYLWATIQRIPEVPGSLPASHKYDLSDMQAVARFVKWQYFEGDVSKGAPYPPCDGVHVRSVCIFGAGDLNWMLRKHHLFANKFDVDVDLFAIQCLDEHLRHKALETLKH
Description: as §1, §2

| Compound | Substrate specificity, C2GnT3 activity (C2GnT3; acceptor substrate 2 mM) [nmol/h/mg] | Substrate specificity, C2GnT3 activity (C2GnT3; acceptor substrate 10 mM) [nmol/h/mg] | C2GnT3 activity with acceptor substrate (in words) (C2GnT3) | Substrate specificity, C2GnT1 activity (C2GnT1; acceptor substrate 2 mM) [nmol/h/mg] | Substrate specificity, C2GnT1 activity (C2GnT1; acceptor substrate 10 mM) [nmol/h/mg] | C2GnT3 activity with donor substrate (in words) (C2GnT3) | Substrate inhibition of C2GnT3 enzyme activity (C2GnT3; high acceptor concentrations up to 20 mM) |
| --- | --- | --- | --- | --- | --- | --- | --- |
| CC(=O)N[C@H]1[C@H](O[C@H]2[C@@H](O)[C@@H](CO)O[C@@H](O[C@H]3[C@H](O)[C@@H](O)C(O)O[C@@H]3CO)[C@@H]2O)O[C@H](CO)[C@@H](O[C@@H]2O[C@H](CO)[C@H](O)[C@H](O)[C@H]2O)[C@@H]1O (mixture of isomers) [lacto-N-neo-tetraose] | <0.1 | <0.1 | no activity | <0.1 | <0.1 |  |  |
| CC(=O)N[C@H]1C(O)O[C@H](CO)[C@H](O)[C@@H]1O (stereo partly drawn) [D-GalNAc] | <0.1 | <0.1 |  | <0.1 | <0.1 |  |  |
| CC(=O)N[C@H]1[C@@H](OP(=O)(O)OP(=O)(O)OC[C@H]2O[C@@H](n3ccc(=O)[nH]c3=O)[C@H](O)[C@@H]2O)O[C@H](CO)[C@H](O)[C@@H]1O [UDP-GalNAc] |  |  |  |  |  | no activity |  |
| CC(=O)N[C@H]1[C@@H](OP(=O)(O)OP(=O)(O)OC[C@H]2O[C@@H](n3ccc(=O)[nH]c3=O)[C@H](O)[C@@H]2O)O[C@H](CO)[C@@H](O)[C@@H]1O [UDP-GlcNAc, UDP-N-acetylglucosamine] |  |  |  |  |  | strict donor substrate specificity |  |
| CC(=O)N[C@H]1[C@@H](Oc2ccc([N+](=O)[O-])cc2)O[C@H](CO)[C@H](O)[C@@H]1O [α-D-GalNAc-1-p-Nph] | <0.1 | <0.1 | no activity | <0.1 | <0.1 |  |  |
| CC(=O)N[C@H]1[C@@H](Oc2ccc([N+](=O)[O-])cc2)O[C@H](CO)[C@H](O)[C@@H]1O[C@@H]1O[C@H](CO)[C@H](O)[C@H](O)[C@H]1O [β-D-Gal-(1-3)-α-D-GalNAc-1-p-Nph] | 18.1 | 26.1 |  | 16.2 | 23.6 |  | No substrate inhibition |
| CC(=O)N[C@@H]1[C@@H](O[C@@H]2O[C@H](CO)[C@H](O)[C@H](O)[C@H]2O)[C@@H](O)[C@@H](CO)O[C@@H]1O [β-D-Gal-(1-3)-α-D-GalNAc] | 6.6 | 14.3 |  | 9.6 | 19.0 |  |  |
| CC(=O)NC1C(OC2C(O)C(CO)OC(Oc3ccc([N+](=O)[O-])cc3)C2NC(C)=O)OC(CO)C(O)C1O [β-D-GlcNAc-(1-3)-α-D-GalNAc-1-p-Nph] | <0.1 | <0.1 |  | <0.1 | <0.1 |  |  |
| CO[C@@H]1O[C@H](CO)[C@H](O)[C@H](O[C@@H]2O[C@H](CO)[C@@H](O)[C@H](O)[C@H]2NC(C)=O)[C@H]1O [β-D-GlcNAc-(1-3)-β-D-Gal-1-Me] | <0.1 | <0.1 | no activity | <0.1 | <0.1 |  |  |
